Measurements as given in patent US5132111A (priority 1990, dated 1992).
Non-standard residues stand in square brackets, D forms with d. Residues, ends and D or L forms follow the SMILES beside them. hArg = N=C(N)NCCCC[C@H](N)C(=O)O; Nle = CCCC[C@H](N)C(=O)O

Tested on: cultured rat pituitary cells
Type: cell-based

Compound	secretion of ACTH	secretion of β-endorphin (β-END-LI)
CCCC[C@H](NC(=O)[C@H](CCC(=O)O)NC(=O)[C@H](CC(C)C)NC(=O)[C@H](CCCC)NC(=O)[C@H](CCC(=O)O)NC(=O)[C@H](CCCNC(=N)N)NC(=O)[C@H](CC(C)C)NC(=O)[C@H](CC(C)C)NC(=O)[C@H](Cc1c[nH]cn1)NC(=O)[C@H](Cc1ccccc1)NC(=O)[C@@H](NC(=O)[C@H](CC(C)C)NC(=O)[C@H](CC(=O)O)NC(=O)[C@H](CC(C)C)NC(=O)[C@H](CO)NC(=O)[C@@H](NC(=O)[C@@H]1CCCN1C(=O)[C@H]1CCCN1C(=O)[C@H](N)Cc1ccc(O)cc1)[C@@H](C)CC)[C@@H](C)O)C(=O)N[C@@H](C)C(=O)N[C@@H](CCCNC(=N)N)C(=O)N[C@@H](C)C(=O)N[C@@H](CCC(=O)O)C(=O)N[C@@H](CCC(N)=O)C(=O)N[C@@H](CCC(=O)O)C(=O)N[C@@H](C)C(=O)N[C@@H](CCC(=O)O)C(=O)N[C@@H](CCC(N)=O)C(=O)N[C@@H](C)C(=O)N[C@@H](C)C(=O)N[C@@H](CC(C)C)C(=O)N[C@@H](CC(N)=O)C(=O)N[C@@H](CCCNC(=N)N)C(=O)N[C@@H](CC(C)C)C(=O)N[C@@H](CC(C)C)C(=O)N[C@@H](CC(C)C)C(=O)N[C@@H](CCC(=O)O)C(=O)N[C@@H](CCC(=O)O)C(=O)N[C@@H](C)C(N)=O [[D-Tyr^3, D-Pro^4, Nle^18,21]-AHC(3-41)] (H-[dY][dP]PISLDLTFHLLRE[Nle]LE[Nle]ARAEQEAEQAALNRLLLEEA-NH2)	stimulates	stimulates
H-SEEPPISLDLTFHLLREVLE[Nle]ARAEQLAQQAYLNRRL[Nle]EEI-NH2	stimulates	stimulates
H-SEEPPISLDLTFHLLREVLEMTRAEQLAEQAHSNRRLMEEI-NH2 [[Thr^22, Glu^29,40, Arg^36]-rCRF]	stimulates	stimulates
H-SQEPPISLDLTFHLLRE[Nle]LE[Nle]ARAEQEAEQAALNRLLLEEA-NH2 [[Nle^18, 21]-AAHC]	stimulates	stimulates
CCCC[C@H](NC(=O)[C@H](CCC(=O)O)NC(=O)[C@H](CCCNC(=N)N)NC(=O)[C@H](CC(C)C)NC(=O)[C@H](CC(C)C)NC(=O)[C@H](Cc1c[nH]cn1)NC(=O)[C@H](Cc1ccccc1)NC(=O)[C@@H](NC(=O)[C@H](CC(C)C)NC(=O)[C@H](CC(=O)O)NC(=O)[C@H](CC(C)C)NC(=O)[C@H](CO)NC(=O)[C@@H](NC(=O)[C@@H]1CCCN1C(=O)[C@@H]1CCCN1C(=O)[C@H](CCC(=O)O)NC(=O)[C@@H](N)CCC(N)=O)[C@@H](C)CC)[C@@H](C)O)C(=O)N[C@@H](CC(C)C)C(=O)N[C@@H](CCC(=O)O)C(=O)N[C@@H](CCSC)C(=O)N[C@H](C(=O)N[C@@H](CCCNC(=N)N)C(=O)N[C@@H](C)C(=O)N[C@@H](CC(=O)O)C(=O)N[C@@H](CCC(N)=O)C(=O)N[C@@H](CC(C)C)C(=O)N[C@@H](C)C(=O)N[C@@H](CCC(N)=O)C(=O)N[C@@H](CCC(N)=O)C(=O)N[C@@H](C)C(=O)N[C@@H](Cc1c[nH]cn1)C(=O)N[C@@H](CO)C(=O)N[C@@H](CC(N)=O)C(=O)N[C@@H](CCCNC(=N)N)C(=O)N[C@@H](CCCNC(=N)N)C(=O)N[C@@H](Cc1ccc(O)cc1)C(=O)N[C@@H](CC(C)C)C(=O)N[C@@H](CC(=O)O)C(=O)N[C@@H](CCC(=O)O)C(=O)N[C@@H](C)C(N)=O)[C@@H](C)O (H-QEPPISLDLTFHLLRE[Nle]LEMTRADQLAQQAHSNRRYLDEA-NH2)	stimulates	stimulates
H-SEEPPISLDLTFHLLREVLE[Nle]A[hArg]AEQLAQQAHLNRRLMEE[Nle]-NH2	stimulates	stimulates
H-SQEPPISLDLTFHLLRE[Nle]LE[Nle]TRADQLRQQAHSNRRLLDIA-NH2 [[Nle^18,21,Arg^23,28,36]-oCRF]	stimulates	stimulates
H-PPISLDLTFHLLREVLEMARAEQLAEQAHSNRRYMEEI-NH2	stimulates	stimulates
H-SQEPPISLELTFHLLRE[Nle]LE[Nle]ARAEQEAEQAALNRLLLEEA-NH2 [[Glu^9, Nle^18, 21]-AAHC]	stimulates	stimulates
CCCC[C@H](NC(=O)[C@@H](NC(=O)[C@H](CC(C)C)NC(=O)[C@H](CC(=O)O)NC(=O)[C@H](CC(C)C)NC(=O)[C@H](CO)NC(=O)[C@@H](NC(=O)[C@@H]1CCCN1C(=O)[C@@H]1CCCN1C(=O)[C@@H](N)CCC(=O)O)[C@@H](C)CC)[C@@H](C)O)C(=O)N[C@@H](Cc1c[nH]cn1)C(=O)N[C@@H](CC(C)C)C(=O)N[C@@H](CC(C)C)C(=O)N[C@@H](CCCNC(=N)N)C(=O)N[C@@H](CCC(=O)O)C(=O)N[C@H](C(=O)N[C@@H](CC(C)C)C(=O)N[C@@H](CCC(=O)O)C(=O)N[C@@H](CCSC)C(=O)N[C@@H](C)C(=O)N[C@@H](CCCNC(=N)N)C(=O)N[C@@H](C)C(=O)N[C@@H](CCC(=O)O)C(=O)N[C@@H](CCC(N)=O)C(=O)N[C@@H](CC(C)C)C(=O)N[C@@H](C)C(=O)N[C@@H](CCC(=O)O)C(=O)N[C@@H](CCC(N)=O)C(=O)N[C@@H](C)C(=O)N[C@@H](Cc1c[nH]cn1)C(=O)N[C@@H](CO)C(=O)N[C@@H](CC(N)=O)C(=O)N[C@@H](CCCNC(=N)N)C(=O)N[C@@H](CCCNC(=N)N)C(=O)N[C@@H](CC(C)C)C(=O)N[C@@H](CCSC)C(=O)N[C@@H](CCC(=O)O)C(=O)N[C@H](C(=O)N[C@H](C(N)=O)[C@@H](C)CC)[C@@H](C)CC)C(C)C (H-EPPISLDLT[Nle]HLLREVLEMARAEQLAEQAHSNRRLMEII-NH2)	stimulates	stimulates
CC[C@H](C)[C@H](NC(=O)[C@@H]1CCCN1C(=O)[C@@H]1CCCN1)C(=O)N[C@@H](CO)C(=O)N[C@@H](CC(C)C)C(=O)N[C@@H](CC(=O)O)C(=O)N[C@@H](CC(C)C)C(=O)N[C@H](C(=O)N[C@@H](CC(C)C)C(=O)N[C@@H](Cc1c[nH]cn1)C(=O)N[C@@H](CC(C)C)C(=O)N[C@@H](CC(C)C)C(=O)N[C@@H](CCCNC(=N)N)C(=O)N[C@@H](CCC(=O)O)C(=O)N[C@@H](CCSC)C(=O)N[C@@H](CC(C)C)C(=O)N[C@@H](CCC(=O)O)C(=O)N[C@@H](CCSC)C(=O)N[C@@H](CCC(=O)O)C(=O)N[C@@H](CCCCNC(=N)N)C(=O)N[C@@H](C)C(=O)N[C@@H](CCC(=O)O)C(=O)N[C@@H](CCC(N)=O)C(=O)N[C@@H](CCC(=O)O)C(=O)N[C@@H](C)C(=O)N[C@@H](CCC(=O)O)C(=O)N[C@@H](CCC(N)=O)C(=O)N[C@@H](C)C(=O)N[C@@H](C)C(=O)N[C@@H](CC(C)C)C(=O)N[C@@H](CC(N)=O)C(=O)N[C@@H](CCCNC(=N)N)C(=O)N[C@@H](CCCCNC(=N)N)C(=O)N[C@@H](CC(C)C)C(=O)N[C@@H](CC(C)C)C(=O)N[C@@H](CCC(=O)O)C(=O)N[C@@H](CCC(=O)O)C(=O)N[C@@H](C)C(N)=O)[C@@H](C)O [[Glu^22, Leu^12, Har^23,36]-AHC(4-41)] (H-PPISLDLTLHLLREMLEME[hArg]AEQEAEQAALNR[hArg]LLEEA-NH2)	stimulates	stimulates
